According to US20200079758A1, “[4-(PHENYLSULFONYL)PIPERAZIN-1-YL](1H-1,2,3-TRIAZOL-4-YL)METHANONES” (priority 2016, published 2020):

These compounds were tested against T1, recombinant human AKR1C3 (Homo sapiens, UniProt P42330) (assay: AKR1C3-inhibitory activity assay (generation of Coumberol from Coumberone)). Details: Coumberone 0.3 μM, NADPH 10 μM, 22° C., typically 90 min, average or median values.
T1 construct: GST (cleaved yes); made in house; host or cells: E. coli
T1 sequence (P42330 1-323): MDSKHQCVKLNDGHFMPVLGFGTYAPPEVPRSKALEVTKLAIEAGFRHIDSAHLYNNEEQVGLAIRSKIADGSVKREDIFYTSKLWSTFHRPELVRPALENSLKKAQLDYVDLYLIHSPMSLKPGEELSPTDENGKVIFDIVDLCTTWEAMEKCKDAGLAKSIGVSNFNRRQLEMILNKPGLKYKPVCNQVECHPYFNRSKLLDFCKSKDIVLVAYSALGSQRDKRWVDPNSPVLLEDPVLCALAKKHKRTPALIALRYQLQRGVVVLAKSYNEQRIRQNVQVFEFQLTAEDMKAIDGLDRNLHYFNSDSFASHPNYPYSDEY
Format: biochemical
Procedure: The AKR1C3-inhibitory activity of the substances of the present invention was measured in the AKR1C3 assay described in the paragraphs below.
Essentially, the enzyme activity is measured by quantification of the generation of Coumberol from Coumberone (Halim et al. J. AM. CHEM. SOC. 2008, 130:14123-14128 and Yee et al. Proc. Natl. Acad. Sci. USA 2006, 103:13304-13309). In this test, the increase of the highly fluorescent Coumberol by NADPH- (nicotinamide adenine dinucleotide phosphate)-dependent reduction of the non-fluorescent Coumberone by AKR1C3 was determined.
The enzyme used was recombinant human AKR1C3 (Aldo-keto reductase family 1 member C3; GenBank Accession No. NM_003739). This was expressed in E. coli as GST (glutathione S transferase) fusion protein and purified by glutathione Sepharose affinity chromatography. The GST was removed by digestion with thrombin and subsequent size exclusion chromatography (Dufort, I., Rheault, P., Huang, X F., Soucy, P., and Luu-The, V., Endocrinology 140, 568-574 (1999)).
For the assay, 50 nl of a 100-fold concentrated solution of the test substance in DMSO were pipetted into a black low-volume 384-well microtiter plate (Greiner Bio-One, Frickenhausen, Germany), 2.5 μl of a solution of AKR1C3 in assay buffer [50 mM potassium phosphate buffer pH 7, 1 mM DTT, 0.0022% (w/v) Pluronic F-127, 0.01% BSA (w/v) and protease inhibitor cocktail (Complete, EDTA-free Protease Inhibitor Cocktail from Roche)] were added and the mixture was incubated for 15 min to allow pre-binding of the substances to the enzyme prior to the enzyme reaction. The enzyme reaction was then started by addition of 2.5 μl of a solution of NADPH (20 μM→final concentration in 5 μl of assay volume is 10 μM) and Coumberone (0.6 μM→final concentration in 5 μl of assay volume is 0.3 μM) in assay buffer, and the resulting mixture was incubated at 22° C. for the reaction time of typically 90 min. The concentration of the AKR1C3 and the reaction time was adapted to the respective activity of the enzyme preparation and adjusted such that the assay was carried out in the linear range. Typical AKR1C3 concentrations were in the region of 1 nM. The reaction was stopped by addition of 2.5 μl of a stop solution consisting of 3 μM EM-1404 as inhibitor (U.S. Pat. No. 6,541,463) in 50 mM HEPES pH7.5 (3 μM EM-1404→final concentration in 7.5 μl of assay volume is 1 μM). The fluorescence of the Coumberole was then measured at 520 nm (excitation at 380 nm) using a suitable measuring instrument (Pherastar from BMG Labtechnologies). The intensity of the fluorescence was used as a measure of the amount of Coumberole formed and thus of the enzyme activity of AKR1C3. The data were normalized (enzyme reaction without inhibitor=0% inhibition; all other assay components, but no enzyme=100% inhibition).

| IC50 [nM] | SMILES |
| --- | --- |
| 439 | C[C@@H]1CN(S(=O)(=O)c2ccccc2C#N)[C@@H](C)CN1C(=O)c1cnn[nH]1 (stereo in doubt) [Example 14, 2-{[(2S,5R)-2,5-dimethyl-4-(1H-1,2,3-triazol-5-ylcarbonyl)piperazin-1-yl]sulfonyl}benzonitrile] |
| 2 | C[C@@H]1CN(C(=O)c2cnn[nH]2)[C@@H](C)CN1S(=O)(=O)c1ccccc1 [Example 1, [(2S,5R)-2,5-dimethyl-4-(phenylsulfonyl)piperazin-1-yl](1H-1,2,3-triazol-5-yl)methanone] |
| 1 | C[C@@H]1CN(C(=O)c2cnn[nH]2)[C@@H](C)CN1S(=O)(=O)c1cc(F)cc(F)c1 [Example 3, {(2S,5R)-4-[(3,5-difluorophenyl)sulfonyl]-2,5-dimethylpiperazin-1-yl}(1H-1,2,3-triazol-5-yl)methanone] |
| 2 | C[C@@H]1CN(C(=O)c2cnn[nH]2)[C@@H](C)CN1S(=O)(=O)c1cc(Cl)ccc1Cl [Example 4, {(2S,5R)-4-[(2,5-dichlorophenyl)sulfonyl]-2,5-dimethylpiperazin-1-yl}(1H-1,2,3-triazol-5-yl)methanone] |
| 2 | C[C@@H]1CN(C(=O)c2cnn[nH]2)[C@@H](C)CN1S(=O)(=O)c1ccccc1F [Example 5, {(2S,5R)-4-[(2-fluorophenyl)sulfonyl]-2,5-dimethylpiperazin-1-yl}(1H-1,2,3-triazol-5-yl)methanone] |
| 2 | C[C@@H]1CN(C(=O)c2cnn[nH]2)[C@@H](C)CN1S(=O)(=O)c1ccccc1C(F)(F)F [Example 6, [(2S,5R)-2,5-dimethyl-4-{[2-(trifluoromethyl)phenyl]sulfonyl}piperazin-1-yl](1H-1,2,3-triazol-5-yl)methanone] |
| 1 | C[C@@H]1CN(C(=O)c2cnn[nH]2)[C@@H](C)CN1S(=O)(=O)c1cccc(F)c1 [Example 7, sodium 5-({(2S,5R)-4-[(3-fluorophenyl)sulfonyl]-2,5-dimethylpiperazin-1-yl}carbonyl)-1,2,3-triazol-1-ide] |
| 1 | C[C@@H]1CN(C(=O)c2c[nH]nn2)[C@@H](C)CN1S(=O)(=O)c1cccc(S(F)(F)(F)(F)F)c1 [Example 8, [(2S,5R)-2,5-dimethyl-4-{[3-(pentafluoro-λ^6-sulfanyl)phenyl]sulfonyl}piperazin-1-yl](1H-1,2,3-triazol-4-yl)methanone] |
| 1 | C[C@@H]1CN(C(=O)c2c[nH]nn2)[C@@H](C)CN1S(=O)(=O)c1cccc(Cl)c1F [Example 9, {(2S,5R)-4-[(3-chloro-2-fluorophenyl)sulfonyl]-2,5-dimethylpiperazin-1-yl}(1H-1,2,3-triazol-4-yl)methanone] |
| 3 | C[C@@H]1CN(C(=O)c2c[nH]nn2)[C@@H](C)CN1S(=O)(=O)c1ccc(Cl)s1 [Example 10, {(2S,5R)-4-[(5-chlorothiophen-2-yl)sulfonyl]-2,5-dimethylpiperazin-1-yl}(1H-1,2,3-triazol-4-yl)methanone] |
| 77 | C[C@@H]1CN(C(=O)c2c[nH]nn2)[C@@H](C)CN1S(=O)(=O)c1cccnc1 [Example 11, [(2S,5R)-2,5-dimethyl-4-(pyridin-3-ylsulfonyl)piperazin-1-yl](1H-1,2,3-triazol-5-yl)methanone] |
| 1 | C[C@@H]1CN(C(=O)c2c[nH]nn2)[C@@H](C)CN1S(=O)(=O)c1cccc(C(F)(F)F)c1 [Example 12, [(2S,5R)-2,5-dimethyl-4-{[3-(trifluoromethyl)phenyl]sulfonyl}piperazin-1-yl](1H-1,2,3-triazol-4-yl)methanone] |
| 2 | C[C@@H]1CN(C(=O)c2c[nH]nn2)[C@@H](C)CN1S(=O)(=O)c1cc(F)ccc1F [Example 13, {(2S,5R)-4-[(2,5-difluorophenyl)sulfonyl]-2,5-dimethylpiperazin-1-yl}(1H-1,2,3-triazol-4-yl)methanone] |
| 55 | C[C@@H]1CN(C(=O)c2cnn[nH]2)[C@@H](C)CN1S(=O)(=O)c1ccc(C#N)cc1 [Example 15, 4-{[(2R,5S)-2,5-dimethyl-4-(1H-1,2,3-triazol-5-ylcarbonyl)piperazin-1-yl]sulfonyl}benzonitrile] |
| 4 | COc1ccccc1S(=O)(=O)N1C[C@H](C)N(C(=O)c2cnn[nH]2)C[C@H]1C [Example 16, {(2S,5R)-4-[(2-methoxyphenyl)sulfonyl]-2,5-dimethylpiperazin-1-yl}(1H-1,2,3-triazol-5-yl)methanone] |
| 12 | C[C@@H]1CN(C(=O)c2cnn[nH]2)[C@@H](C)CN1S(=O)(=O)c1ccc(O)cc1 [Example 17, {(2S,5R)-4-[(4-hydroxyphenyl)sulfonyl]-2,5-dimethylpiperazin-1-yl}(1H-1,2,3-triazol-5-yl)methanone] |
| 11 | C[C@@H]1CN(S(=O)(=O)c2ccccc2)C[C@H](C)N1C(=O)c1c[nH]nn1 [Example 18, [(2R,6S)-2,6-dimethyl-4-(phenylsulfonyl)piperazin-1-yl](1H-1,2,3-triazol-4-yl)methanone] |
| 17 | CC1(C)CN(C(=O)c2c[nH]nn2)CCN1S(=O)(=O)c1ccccc1 [Example 19, [3,3-dimethyl-4-(phenylsulfonyl)piperazin-1-yl](1H-1,2,3-triazol-4-yl)methanone] |
| 11 | CC1(C)CN(C(=O)c2c[nH]nn2)CCN1S(=O)(=O)c1cccc(F)c1 [Example 20, {4-[(3-fluorophenyl)sulfonyl]-3,3-dimethylpiperazin-1-yl}(1H-1,2,3-triazol-4-yl)methanone] |
| 3 | CC1(C)CN(C(=O)c2c[nH]nn2)CCN1S(=O)(=O)c1cccc(Cl)c1 [Example 21, {4-[(3-chlorophenyl)sulfonyl]-3,3-dimethylpiperazin-1-yl}(1H-1,2,3-triazol-4-yl)methanone] |
| 2 | Cc1cc(C)cc(S(=O)(=O)N2CCN(C(=O)c3c[nH]nn3)CC2(C)C)c1 [Example 22, {4-[(3,5-dimethylphenyl)sulfonyl]-3,3-dimethylpiperazin-1-yl}(1H-1,2,3-triazol-4-yl)methanone] |
| 2 | CC1(C)CN(C(=O)c2c[nH]nn2)CCN1S(=O)(=O)c1cccc(Br)c1 [Example 23, {4-[(3-bromophenyl)sulfonyl]-3,3-dimethylpiperazin-1-yl}(1H-1,2,3-triazol-4-yl)methanone] |
| 8 | CC1(C)CN(C(=O)c2c[nH]nn2)CCN1S(=O)(=O)c1cccc(Cl)c1F [Example 24, {4-[(3-chloro-2-fluorophenyl)sulfonyl]-3,3-dimethylpiperazin-1-yl}(1H-1,2,3-triazol-4-yl)methanone] |
| 7 | CC1(C)CN(C(=O)c2c[nH]nn2)CCN1S(=O)(=O)c1cc(Cl)ccc1Cl [Example 25, {4-[(2,5-dichlorophenyl)sulfonyl]-3,3-dimethylpiperazin-1-yl}(1H-1,2,3-triazol-4-yl)methanone] |
| 4 | CC1(C)CN(C(=O)c2c[nH]nn2)CCN1S(=O)(=O)c1cc(Cl)cc(Cl)c1 [Example 26, {4-[(3,5-dichlorophenyl)sulfonyl]-3,3-dimethylpiperazin-1-yl}(1H-1,2,3-triazol-4-yl)methanone] |
| 7 | CC1(C)CN(C(=O)c2c[nH]nn2)CCN1S(=O)(=O)c1ccccc1C(F)(F)F [Example 27, (3,3-dimethyl-4-{[2-(trifluoromethyl)phenyl]sulfonyl}piperazin-1-yl)(1H-1,2,3-triazol-4-yl)methanone] |
